Results from BigSolDB 2.1.

Conditions: in tetrachloromethane

C[C@@H]1CC[C@@]2(OC1)O[C@H]1C[C@H]3[C@@H]4CC=C5C[C@@H](O)CC[C@]5(C)[C@H]4CC[C@]3(C)[C@H]1[C@@H]2C
Conditions	solubility (mole fraction)
291.95 K	0.00286
297.45 K	0.00334
299.85 K	0.00381
302.75 K	0.00429
306.95 K	0.00487
308.95 K	0.00536
311.35 K	0.00578
313.65 K	0.0063
316.15 K	0.00676
317.95 K	0.00718
318.95 K	0.00763
320.55 K	0.00804
322.35 K	0.00857
323.65 K	0.00905
325.15 K	0.0095
326.35 K	0.0099
327.85 K	0.0105
328.95 K	0.0109
